Source: patent US11524012B1, “Quinolone analogs and their salts, compositions, and method for their use” (Senhwa Biosciences, Inc., priority 2018, dated 2022)

Experiment: Stability study of lyophilized Compound I with mannitol (Method A / Method B samples)
Type: physicochemical
Conditions: Method B sample
Method: […] Each 30 mL Type I, clear glass sample vial with 20 mm Freeze Dry Stoppers (Flurotech™ coated) contained 150 mg of Compound I.
At each time point, a vial was removed from the stored condition and reconstituted with 10 mL of D5W and analyzed by HPLC method as discussed in Example 5 at 1 month, 2 months, 3 months, and/or 6 months. In Tables 18-18e, RRT matches the Compounds as shown below.
Sample Preparation—Method A: 10% Mannitol solution was prepared by weighing 200 g±1.0 g of mannitol into glass beaker, adding approximately 1500 mL of WFI (water for injection) to the beaker and stirring until mannitol was dissolved. The mannitol solution was transferred to a 2 L volumetric flask and made to volume with WFI, then poured back to the original beaker to sir and mix further. 1M HCl solution was prepared by adding 16.4 mL of HCl (37%) to a 200 mL volumetric flask containing approximately 100 mL of WFI, adding WFI to make 200 mL in volume, and inverting to mix the prepared solution.
To a tared 2 L Schott bottle containing a magnetic stirrer and wrapped in aluminum foil, 1020 g±1.0 g of the 10% mannitol solution was added. Then, 58.4 g±0.05 g of the 1M HCl solution was added to the 2 L Schott bottle and stirred for approximately 10 minutes. The solution prepared in the 2 L Schott bottle was purged with nitrogen which was continued throughout the manufacturing process. 30.22 g of Compound I (free base) was weighed then added to the 2 L Schott bottle containing 10% mannitol solution and 1 M HCl solution with continual magnetic stirring. The container used to weigh Compound I was rinsed with 3×10 mL of WFI and added to the Schott bottle. After Compound I dissolved (approximately 40 minutes), additional 650 g of WFI was added to the Schott bottle and the solution was stirred for approximately 10 minutes. The pH of the Compound I solution (in Schott bottle) was measured then adjusted to pH 4.5±0.1 using 1 M HCl solution. After each addition of 1 M HCl solution, the solution was stirred for several minutes prior to verifying the pH. Once the pH was adjusted, nitrogen purging was stopped. The pH adjusted Compound I solution was further diluted with WFI to a target weight of 2040 g±1.0 g and stirred.
The final solution (pH adjusted and diluted) was filtered (chain including PVD Fmembrane filter 0.45 μm and 0.22 μm; peristaltic filtration pump by Watson Marlow) in the Bigneat and the bottle containing the filtered solution was sealed. The filtered solution was pumped (Watson Marlow Flexicon PF6-B pump; 100 RPM) into 30 mL Schott Clear Glass vials (10.0 mL filtered solution each). The glass vials were partially stoppered with 20 mm Freeze Dry Stopper Flurotec (Daikyo Seiko) one vial at a time with sterilized utensils inside a fume hood (Envair B101+1.5R) and placed on freeze dryer trays. The freeze dryer trays were transferred into freeze dry chamber and vial probe was positioned (Lyostar II; FTS Kinetics). Lyophilization was performed using the lyophilization cycle listed below. After lyophilization cycle finished, the vials were back filled with N2 and the stopper was placed in situ, wiped down with isopropanol in the fume hood once removed from the freeze dryer, reconciled, then crimped. Seven vials out of 186 sample vials placed under the lyophilization cycle had smashed in the freeze dryer.
Sample Preparation—Method B (dissolved oxygen content ≤1 ppm): 2 L WFI was poured into a Schott bottled and degassed for 30 minutes with N2 until dissolved oxygen content was ≤1 ppm (dissolved oxygen meter and probe; Mettler Toledo). 10% Mannitol solution was prepared by adding […] of mannitol and 1000 mL of degassed WFI to a tared 2 L Schott bottle containing a magnetic stirrer and wrapped in aluminum foil. To the Schott bottle containing mannitol, 15 mL of 2M HCl was added and stirred for approximately 10 minutes. The resulting solution was sparged with N2 while stirring until dissolved oxygen content was ≤1 ppm (approx. 30 min). […]

[1] = 5° C, time not printed (2nd block, col 1)
[2] = 5° C, time not printed (2nd block, col 2)
[3] = 5° C, time not printed (2nd block, col 3)
[4] = 5° C, time not printed (2nd block, col 4)

Compound: Cc1cnc(CNC(=O)c2c(=O)c3ccc(N4CCCN(C)CC4)nc3n3c2sc2ccccc23)cn1 [Compound I, 2-(4-Methyl-[1,4]diazepan-1-yl)-5-oxo-5H-7-thia-1,11b-diaza-benzo[c]fluorene-6-carboxylic acid (5-methyl-pyrazin-2-ylmethyl)-amide]
- pH (USP<791>) (5° C, Initial): 4.6
- Appearance [1]: Off-white powder
- Appearance (Reconstituted Solution) [1]: Clear, colorless
- Compound I by HPLC assay [1]: 101.7%
- Related Substances RRT 1.05 [1]: RRT 1.05: 0.14%
- Related Substances RRT 1.07 [1]: RRT 1.07: 0.05%
- Related Substances Total [1]: Total:0.2%
- Water Content USP<921 Method 1c> [1]: 1.37%
- pH (USP<791>) [1]: 4.6
- Appearance [2]: Off-white powder
- Appearance (Reconstituted Solution) [2]: Clear, colorless
- Compound I by HPLC assay [2]: 101.3%
- Related Substances RRT 1.05 [2]: RRT 1.05: 0.13%
- Related Substances Total [2]: Total: 0.1%
- Water Content USP<921 Method 1c> [2]: 1.29%
- pH (USP<791>) [2]: 4.5
- Appearance [3]: Off-white powder
- Appearance (Reconstituted Solution) [3]: Clear, colorless
- Compound I by HPLC assay [3]: 100.3%
- Related Substances RRT 1.05 [3]: RRT 1.05: 0.13%
- Related Substances Total [3]: Total: 0.1%
- Water Content USP<921 Method 1c> [3]: 1.05%
- pH (USP<791>) [3]: 4.5
- Appearance [4]: Off-white powder
- Appearance (Reconstituted Solution) [4]: Clear, colorless
- Compound I by HPLC assay [4]: 99.1%
- Related Substances RRT 1.05 [4]: RRT 1.05: 0.11%
- Related Substances Total [4]: Total: 0.1%
- Water Content USP<921 Method 1c> [4]: 1.25%
- pH (USP<791>) [4]: 4.5
- Appearance (25° C./60% RH, 1 month): White
- Appearance (Reconstituted Solution) (25° C./60% RH, 1 month): Clear, colorless
- Compound I by HPLC assay (25° C./60% RH, 1 month): 99.8%
- Reconstitution Time (25° C./60% RH, 1 month): 55 s
- Related Substances RRT 1.06 (25° C./60% RH, 1 month): 0.17%
- Related Substances RRT 1.08 (25° C./60% RH, 1 month): 0.06%
- Related Substances Total (25° C./60% RH, 1 month): Total: 0.2%
- Water Content USP<921 Method 1c> (25° C./60% RH, 1 month): 1.47%
- pH (USP<791>) (25° C./60% RH, 1 month): 4.4
- Appearance (25° C./60% RH, 2 months): Off-white
- Appearance (Reconstituted Solution) (25° C./60% RH, 2 months): Clear, colorless
- Compound I by HPLC assay (25° C./60% RH, 2 months): 101.0%
- Related Substances RRT 0.17 (25° C./60% RH, 2 months): 0.08%
- Related Substances RRT 1.04 (25° C./60% RH, 2 months): 0.08%
- Related Substances RRT 1.05 (25° C./60% RH, 2 months): 0.17%
- Related Substances Total (25° C./60% RH, 2 months): Total: 0.3%
- Water Content USP<921 Method 1c> (25° C./60% RH, 2 months): 1.30%
- pH (USP<791>) (25° C./60% RH, 2 months): 4.6
- Appearance (25° C./60% RH, 3 months): Off-white
- Appearance (Reconstituted Solution) (25° C./60% RH, 3 months): Clear, colorless
- Compound I by HPLC assay (25° C./60% RH, 3 months): 100.8%
- Related Substances RRT 0.17 (25° C./60% RH, 3 months): 0.09%
- Related Substances RRT 1.04 (25° C./60% RH, 3 months): 0.08%
- Related Substances RRT 1.05 (25° C./60% RH, 3 months): 0.19%
- Related Substances Total (25° C./60% RH, 3 months): Total: 0.4%
- Water Content USP<921 Method 1c> (25° C./60% RH, 3 months): 1.30%
- pH (USP<791>) (25° C./60% RH, 3 months): 4.6
- Appearance (25° C./60% RH, 6 months): Off-white
- Appearance (Reconstituted Solution) (25° C./60% RH, 6 months): Clear, colorless
- Compound I by HPLC assay (25° C./60% RH, 6 months): 100.3%
- Related Substances RRT 0.88 (25° C./60% RH, 6 months): 0.06%
- Related Substances RRT 1.05 (25° C./60% RH, 6 months): 0.16%
- Related Substances RRT 1.07 (25° C./60% RH, 6 months): 0.10%
- Related Substances Total (25° C./60% RH, 6 months): Total: 0.3%
- Water Content USP<921 Method 1c> (25° C./60% RH, 6 months): 1.30%
- pH (USP<791>) (25° C./60% RH, 6 months): 4.5
- Appearance (25° C./60% RH, 12 months): Off-white
- Appearance (Reconstituted Solution) (25° C./60% RH, 12 months): Clear, colorless
- Compound I by HPLC assay (25° C./60% RH, 12 months): 100.7%
- Related Substances RRT 1.05 (25° C./60% RH, 12 months): 0.18%
- Related Substances RRT 1.07 (25° C./60% RH, 12 months): 0.09%
- Related Substances Total (25° C./60% RH, 12 months): Total: 0.3%
- Water Content USP<921 Method 1c> (25° C./60% RH, 12 months): 1.55%
- pH (USP<791>) (25° C./60% RH, 12 months): 4.5
- Appearance (25° C./60% RH, 24 months): Off-white
- Appearance (Reconstituted Solution) (25° C./60% RH, 24 months): Clear, colorless
- Compound I by HPLC assay (25° C./60% RH, 24 months): 97.6%
